Molecules are shown by their SMILES.

In patent US10072003B2, “Tetrahydronaphthyridine derivatives as mGluR2-negative allosteric modulators, compositions, and their use” (Merck Sharp & Dohme Corp., priority 2014, dated 2018) one finds IC50 data, which are given here for 12 compounds.

For this test, the target named is recombinant human mGluR2 (Homo sapiens (Human), UniProt Q14416). In words: FLIPR Ca2+ mobilization antagonist assay in CHO dhfr- cells expressing human mGluR2 and Gα16. Type of test: cell-based. The following applies: antagonist response after addition of 2,500 nM glutamate, Fluo-4 AM, FLIPR384. How it is done: Antagonist constants are determined as follows. The compounds of the invention were tested in a fluorescence laser imaging plate reader based assay. This assay is a common functional assay to monitor Ca2+ mobilization in whole cells expressing recombinant receptor coupled with a promiscuous G-protein. CHO dhfr-cells stably expressing recombinant human mGluR2 and Gα16 loaded with Fluo-4 AM (Invitrogen, Carlsbad Calif.) were treated with various concentrations of antagonists of compounds and the Ca2+ response was monitored on a FLIPR384 (Molecular Devices, Sunnydale Calif.) for agonist activity. Then 2,500 nM glutamate was added and the antagonist response was monitored. The maximum calcium response at each concentration of compound for agonist or antagonist were plotted as dose responses and the curves were fitted with a four parameter logistic equation giving IC50 and Hill coefficient using the iterative non linear curve fitting software ADA (Merck & Co). Data in the following table represent activities in the antagonist assay.
Sequence of recombinant human mGluR2 (Q14416 19-872): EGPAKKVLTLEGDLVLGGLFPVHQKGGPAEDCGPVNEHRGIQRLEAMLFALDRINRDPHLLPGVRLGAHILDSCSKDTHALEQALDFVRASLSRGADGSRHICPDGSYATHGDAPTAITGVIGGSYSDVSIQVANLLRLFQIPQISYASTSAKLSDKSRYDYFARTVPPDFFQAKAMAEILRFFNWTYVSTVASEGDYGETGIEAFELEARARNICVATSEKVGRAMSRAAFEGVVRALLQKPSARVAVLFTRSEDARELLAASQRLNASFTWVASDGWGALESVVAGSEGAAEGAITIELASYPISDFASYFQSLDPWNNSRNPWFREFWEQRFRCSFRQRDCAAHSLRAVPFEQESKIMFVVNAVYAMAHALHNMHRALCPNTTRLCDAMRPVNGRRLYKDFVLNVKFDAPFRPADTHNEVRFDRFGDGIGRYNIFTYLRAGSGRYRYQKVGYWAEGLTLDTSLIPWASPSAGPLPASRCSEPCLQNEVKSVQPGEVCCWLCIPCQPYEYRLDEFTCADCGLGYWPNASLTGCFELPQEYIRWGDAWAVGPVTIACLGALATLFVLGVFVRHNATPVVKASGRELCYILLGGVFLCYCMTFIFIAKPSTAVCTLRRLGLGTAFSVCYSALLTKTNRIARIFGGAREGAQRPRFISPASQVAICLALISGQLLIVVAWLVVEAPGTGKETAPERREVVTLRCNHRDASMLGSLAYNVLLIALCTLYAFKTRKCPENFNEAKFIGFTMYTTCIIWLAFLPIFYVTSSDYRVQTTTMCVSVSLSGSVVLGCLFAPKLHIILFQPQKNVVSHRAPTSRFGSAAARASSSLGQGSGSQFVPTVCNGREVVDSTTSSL
For the compound `Cc1cc(-c2cc(C(N)=O)nc3c2CCN(Cc2ccnc(C(F)(F)F)c2)C3)ccn1` [Example 2-14, 4-(2-methylpyridin-4-yl)-7-{[2-(trifluoromethyl)pyridin-4-yl]methyl}-5,6,7,8-tetrahydro-1,7-naphthyridine-2-carboxamide], the IC50 turned out to be 153 nM.
The figure for `Cc1cc(-c2cc(C(N)=O)nc3c2CCN(Cc2ccnc(OC(F)F)c2)C3)sn1` [Example 2-16, 7-{[2-(difluoromethoxy)pyridin-4-yl]methyl}-4-(3-methylisothiazol-5-yl)-5,6,7,8-tetrahydro-1,7-naphthyridine-2-carboxamide] is 26.7 nM; for `CN1CCN(c2cc(C(N)=O)nc3c2CCN(Cc2ccnc(C(F)(F)F)c2)C3)CC1C(F)(F)F` (single isomer, unassigned) [Example 5-9, (S) or (R)-4-(4-methyl-3-(trifluoromethyl)piperazin-1-yl-7-((2-(trifluoromethyl)pyridin-4-yl)methyl)-5,6,7,8-tetrahydro-1,7-naphthyridine-2-carboxamide] it is 92.7 nM; for `Cc1cc(CN2CCc3c(-c4ccc(F)cc4F)cc(C(N)=O)nc3C2)n(C)n1` [Example 1-7, 4-(2,4-difluorophenyl)-7-[(1,3-dimethyl-1H-pyrazol-5-yl)methyl]-5,6,7,8-tetrahydro-1,7-naphthyridine-2-carboxamide] it is 13.8 nM.
Under `Cn1nccc1CN1CCc2c(-c3ccc(F)cc3F)cc(C(N)=O)nc2C1` [Example 1-6, 4-(2,4-difluorophenyl)-7-[(1-methyl-1H-pyrazol-5-yl)methyl]-5,6,7,8-tetrahydro-1,7-naphthyridine-2-carboxamide] stands 14.5 nM.
As for `NC(=O)c1cc(-c2c(F)cccc2F)c2c(n1)CN(Cc1ccnc(C(F)(F)F)n1)CC2` [Example 11-1, 4-(2,6-Difluorophenyl)-7-((2-(trifluoromethyl)pyrimidin-4-yl)methyl)-5,6,7,8-tetrahydro-1,7-naphthyridine-2-carboxamide], the IC50 is 25.8 nM.
The figure for `NC(=O)c1cc(-c2ccc(F)cc2F)c2c(n1)CN(CC(=O)N1CCOCC1)CC2` [Example 2-17, 4-(2,4-difluorophenyl)-7-(2-morpholin-4-yl-2-oxoethyl)-5,6,7,8-tetrahydro-1,7-naphthyridine-2-carboxamide] is 101 nM; for `NC(=O)c1cc(-c2cc(C3CC3)ns2)c2c(n1)CN(Cc1ccnc(OC(F)F)c1)CC2` [Example 2-27, 4-(3-cyclopropylisothiazol-5-yl)-7-{[2-(difluoromethoxy)pyridin-4-yl]methyl}-5,6,7,8-tetrahydro-1,7-naphthyridine-2-carboxamide] it is 23 nM; for `CC(C)(C)n1nncc1CN1CCc2c(-c3c(F)cc(Cl)cc3F)cc(C(N)=O)nc2C1` [Example 1-17, 7-[(1-tert-butyl-1H-1,2,3-triazol-5-yl)methyl]-4-(4-chloro-2,6-difluorophenyl)-5,6,7,8-tetrahydro-1,7-naphthyridine-2-carboxamide] it is 7.4 nM.
Under `NC(=O)c1cc(-n2cc(Cl)cn2)c2c(n1)CN(Cc1ccnc(C(F)(F)F)n1)CC2` [Example 12-3, 4-(4-chloro-1H-pyrazol-1-yl)-7-{[2-(trifluoromethyl)pyrimidin-4-yl]methyl}-5,6,7,8-tetrahydro-1,7-naphthyridine-2-carboxamide] stands 93.2 nM; under `NC(=O)c1cc(-c2ccc(F)cc2F)c2c(n1)CN(CC(O)c1ccccc1)CC2` (single isomer, unassigned) [Example 8-3B, (R) or (S)-4-(2,4-difluorophenyl)-7-[(2R or 2S)-2-hydroxy-2-phenylethyl]-5,6,7,8-tetrahydro-1,7-naphthyridine-2-carboxamide], 12.7 nM.
Under `NC(=O)c1cc(C2=CCC3(CC2)CC3)c2c(n1)CN(Cc1ccnc(C(F)(F)F)c1)CC2` [Example 4-2, 4-spiro[2.5]oct-5-en-6-yl-7-{[2-(trifluoromethyl)pyridin-4-yl]methyl}-5,6,7,8-tetrahydro-1,7-naphthyridine-2-carboxamide] stands 49.7 nM.

A word on the IC50: it is the midpoint of a concentration-inhibition curve.
